# Assays:
# Cryptosporidium parvum [1] = assay: Invasion experiment: HCT-8 cells infected with oocysts and cultured with compound for 3 h, qRT-PCR; assay type: cell-based; settings: 0.01 to 20 μM, compound only during invasion phase (3 h)
# Description: (§1) Candidate anti-cryptosporidial compounds were further examined for their effects on C. parvum invasion or development assays. In invasion experiments, HCT-8 cells plated on coverslips were infected with bleached oocysts and cultured with active compounds for 3 h at 37°C. In growth experiments, monolayers were infected with bleached oocysts, washed twice with PBS at 3 h post-infection, and returned to culture in fresh HCT-8 medium with active compounds for 41 h. RNA was collected from each well at specified time point to assess the anti-cryptosporidial activities of these compounds using qRT-PCR method described above. The addition of 140 μM paromomycin was used as a positive control. Parasite enumeration by immunofluorescence microscopy was used to verify the efficacy of active compound K292-0423 against C. parvum development in vitro.
# Cryptosporidium parvum [2] = assay: Parasite enumeration by immunofluorescence microscopy in treated HCT-8 cultures; assay type: cell-based; settings: 10 μM; positive control paromomycin 140 μM
# Description: as §1
# Cryptosporidium parvum [3] = assay: Growth experiment: compound added at 3 h post-infection for 41 h, qRT-PCR; assay type: cell-based; settings: read-out: EC50 on parasite loads, compound added after invasion
# Description: as §1
# rCpCDPK2A = rCpCDPK2A (Cryptosporidium parvum, UniProt Q5CTY5); assay: NADH-coupled ATPase assay of rCpCDPK2A enzyme activity; assay type: biochemical
# rCpCDPK2A, sequence (Q5CTY5 entry or part of it): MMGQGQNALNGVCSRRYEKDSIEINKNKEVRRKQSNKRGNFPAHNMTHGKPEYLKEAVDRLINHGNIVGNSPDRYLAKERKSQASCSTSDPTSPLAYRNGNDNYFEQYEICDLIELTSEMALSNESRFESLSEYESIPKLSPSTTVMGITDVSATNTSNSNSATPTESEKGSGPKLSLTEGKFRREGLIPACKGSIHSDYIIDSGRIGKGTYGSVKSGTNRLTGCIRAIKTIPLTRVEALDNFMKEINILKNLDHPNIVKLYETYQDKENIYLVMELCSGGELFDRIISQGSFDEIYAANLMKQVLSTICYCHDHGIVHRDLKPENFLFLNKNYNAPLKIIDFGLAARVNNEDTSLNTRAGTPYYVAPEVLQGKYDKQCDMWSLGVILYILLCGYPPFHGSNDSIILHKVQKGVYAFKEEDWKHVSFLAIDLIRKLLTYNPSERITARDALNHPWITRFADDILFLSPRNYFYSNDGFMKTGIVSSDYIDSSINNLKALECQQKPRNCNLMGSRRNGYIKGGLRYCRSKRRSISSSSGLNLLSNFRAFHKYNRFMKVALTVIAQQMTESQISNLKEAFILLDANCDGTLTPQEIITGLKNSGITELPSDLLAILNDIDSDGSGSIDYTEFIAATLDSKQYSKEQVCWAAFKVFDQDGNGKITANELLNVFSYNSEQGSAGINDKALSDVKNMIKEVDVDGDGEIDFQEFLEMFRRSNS
# Description: The enzymatic activity of rCpCDPK2A was measured using the […] NADH-coupled ATPase assay as described previously ([Rutaganira et al., 2017]). The kinase reaction was conducted at 30°C for 40 min in 100 mM HEPES, pH 8.0, 150 mM NaCl, 10 mM MgCl2, 1 mM CaCl2, 50 mM KCl, 10 mM DTT, 2 μg/ml BSA, and 0.01% Tween 20. The typical assay of 100 μl reactions contained 50 μM Syntide-2, 50 μM ATP, 150 μM NADH, 300 μM phosphoenolpyruvate (PEP), and a mixture of pyruvate kinase (4 units/ml) and lactate dehydrogenase (6 units/ml; Sigma). The reaction was initiated with the addition of 100 nM rCpCDPK2A. A recombinant insulinase-like protease of C. parvum, INS-16, was used as the negative control. To assess the inhibitory effect on enzymatic activities of rCpCDPK2A, six active compounds were added to the reaction at 10 μM in duplicate. Compounds with significant inhibition rates were selected to determine the half-maximal inhibition concentration (IC50) using final concentrations of 1 μM to 20 μM. The IC50 values were calculated using Graphpad Prism 7.
# HCT-8 cells = assay: Cytotoxicity, Cell Titer 96 Aqueous One Solution Cell Proliferation Assay; assay type: cell-based, human
# Description: (§2) Using molecular docking of the simulated CpCDPK2A structure, small molecules were selected from the ChemDiv database. The binding energy values of ligands to proteins were calculated based on ligand efficiency, Coulomb energy, Van der waals energy, and H-bond energy. Candidate small molecules were purchased from TopScience Ltd. (Shanghai, China) and screened for activities against C. parvum development in vitro using qRT-PCR ([Zhang et al., 2012]). Briefly, HCT-8 monolayers (2 × 10^4 cells/well) grown in 96 well plates were inoculated with hypochlorite-treated oocysts (2 × 10^4 oocysts/well) containing dilutions of compounds (10 μM) or DMSO (1%). The parasites were allowed to invade host cells for 3 h, and uninvaded parasites were washed off with the medium change. […] The levels of 18S rRNA transcripts of C. parvum and HCT-8 cells were measured by using the HiScript II One Step qRT-PCR SYBR Green kit (Vazyme Biotech, Nanjing, China) as described ([Zhang et al., 2012]). The parasite loads in cultures were calculated using the ΔΔCT method ([Cai et al., 2005]). […] The cytotoxicity of compounds was evaluated by the Cell Titer 96 Aqueous One Solution Cell Proliferation Assay (Promega) as described ([Pobsuk et al., 2019]). The half-maximal toxic concentration (TC50) values on host cells were calculated using Graphpad Prism 7 (Graphpad software, San Diego, United States).
# Cryptosporidium parvum [4] = assay: Anti-cryptosporidial activity on C. parvum development in HCT-8 cultures by qRT-PCR (compound present during invasion and growth, 44 h); assay type: cell-based
# Description: as §2
smiles,measurement,setting,value
O=C(CSc1nc2ccsc2c(=O)n1-c1ccc(Cl)cc1)NCc1ccco1 [K292-0423],Inhibition rates of invasion of HCT-8 cells by C. parvum,Cryptosporidium parvum [1],−24.27 to 37.66%
same,Inhibitory effect by direct enumeration of parasites,Cryptosporidium parvum [2],inhibitory effects similar to that by the positive control paromomycin
same,EC50,Cryptosporidium parvum [3],3.16 µM
same,inhibition at 10 µM,"rCpCDPK2A; 10 μM compound, read-out: Inhibition rate of rCpCDPK2A activity",73.1%
same,IC50,"rCpCDPK2A; concentrations 1 μM to 20 μM, read-out: IC50 on CpCDPK2A enzyme",8.42 µM
same,TC50 (half-maximal toxic concentration),HCT-8 cells,>75 µM
same,inhibition at 10 µM,"Cryptosporidium parvum [4]; 10 μM, read-out: Inhibition of parasite growth in primary screening",> 60%
same,EC50,"Cryptosporidium parvum [4]; dilutions 10 nM to 20 μM, read-out: EC50 (half-maximal effective concentration) on C. parvum growth",1.13 µM

# — article PMC9090282, “Characterization of Calcium-Dependent Protein Kinase 2A, a Potential Drug Target Against Cryptosporidiosis” (Frontiers in Microbiology, 2022)
